Read-outs that look alike come from different tables or passages of the source.
Columns and labels:
[1] = system: p75^NTR receptors (PC12 cells); assay: Basic screening assay: binding of 125I-NGF to PC12 cells; conditions: test compound 50 μM, 0.5 nM 125I-NGF, PC12 cells, 2 h at 4° C., specific binding as percent of control
Experimental: (§1) The compounds were screened for effects on binding of ^125I-BDNF or ^125I-NGF to PC12 cells (p75^NTR receptors), and those that inhibited binding were further tested to determine the EC50 for this inhibition.
(§2) PC12 cells were cultured and prepared for binding assays as described in Example 1.
Lyophilized Serotec mouse 2.5S NGF (Cedarlane Laboratories, Toronto, Canada, cat. # PMP 04Z) was reconstituted under sterile conditions to 1 mg/mL (38 μM) in sterile 0.2% acetic acid, and 100 μL or 50 μL aliquots were stored frozen at −80° C.
(§3) Lypophilized Peprotech human recombinant BDNF (Cedarlane Laboratories, Toronto, Canada, cat. # PE 450-02-10) was reconstituted under sterile conditions to 3.5 μM in sterile HKR/1%BSA, and either used immediately or stored in aliquots of 20 μl at −80° C. Immediately prior to use, a 15 nM (30×) solution of ^125I-BDNF or ^125I-NGF was prepared in HKR buffer, and was used at 0.5 nM final concentration.
(§4) Test Compounds were dissolved to 10 mM in DMSO, and those that were not initially soluble were warmed to 40-50° C. and vortexed. Those compounds that were still not in solution were reported as such. Compounds were then stored in this form at −20° C. until use. Immediately before experiments, 100 mM compounds were diluted to 10 mM in DMSO (1:10), followed by a further dilution to 1 mM (1:10) with distilled water, and a further dilution to 500 μM (1:1) with HKR.
(§5) Assays to determine maximum binding (Bmax), non-specific binding (NSB), and binding in the presence of each test compound (e.g., x, y) were performed at least in duplicate. In a total volume of 300 μL, 4×10^6 PC12 cells were incubated, rotating for 2 h at 4° C. with the following:
(§6) At the conclusion of the binding reaction, 100 μL aliquots of the reaction mixtures were carefully layered over 200 μL of a 10% glycerol solution in a 0.4 mL tube, and subjected to centrifugation in a microcentrifuge for 2 minutes at half maximum speed. The cell pellets containing the bound ^125I-BDNF or ^125I-NGF were then measured using a gamma counter. The mean values of the replicates were then calculated to determine the value for maximum binding (Bmax) and nonspecific binding (NSB), and binding in the presence of test compound at 50 μM (Bx). Specific binding (SB) was measured by subtracting the NSB from the Bmax. Specific binding in the presence of the test compound (SBx) was determined by subtracting the NSB from the Bx for each test compound; and each SBx was divided by SB and multiplied by 100 to give the specific binding in the presence of the compound as a percent of control specific binding.

[2] = target: T1, p75^NTR receptors (PC12 cells) (Rattus norvegicus, UniProt P07174); assay: Basic screening assay: binding of 125I-BDNF to PC12 cells; conditions: read-out: BDNF Activity % Maximal Binding
T1 construct: endogenous in cells; host or cells: PC12 cells
T1 sequence (P07174 30-425): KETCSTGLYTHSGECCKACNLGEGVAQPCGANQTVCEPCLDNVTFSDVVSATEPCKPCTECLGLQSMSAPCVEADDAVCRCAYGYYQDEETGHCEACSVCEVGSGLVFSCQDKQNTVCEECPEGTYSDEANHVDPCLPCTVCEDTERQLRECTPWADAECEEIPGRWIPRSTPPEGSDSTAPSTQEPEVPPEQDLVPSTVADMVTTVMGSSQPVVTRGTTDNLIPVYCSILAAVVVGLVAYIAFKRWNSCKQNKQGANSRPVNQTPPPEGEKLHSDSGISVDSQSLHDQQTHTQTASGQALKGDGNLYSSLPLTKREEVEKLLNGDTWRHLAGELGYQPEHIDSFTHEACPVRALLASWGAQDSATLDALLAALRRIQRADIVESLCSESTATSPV
T1 sequence (P23560 129-247 partner): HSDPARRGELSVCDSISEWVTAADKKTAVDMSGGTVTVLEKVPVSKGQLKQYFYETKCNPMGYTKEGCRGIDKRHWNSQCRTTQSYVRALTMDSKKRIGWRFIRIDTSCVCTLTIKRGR
Experimental: as §1, §2, §3, §4, §5
as §6, with “Bmax.” for “Bmax. Specific binding in the presence of the test compound (SBx) was determined by subtracting the NSB from the Bx for each test compound; and each SBx was divided by SB and multiplied by 100 to give the specific binding in the presence of the compound as a percent of control specific binding.”

[3] = Table 1, test compound 50 μM, 0.5 nM 125I-BDNF, PC12 cells, 2 h at 4° C., specific binding as percent of control
[4] = Table 4, test compound 50 μM, 0.5 nM 125I-BDNF, PC12 cells, 2 h at 4° C., specific binding as percent of control
[5] = Table 2, test compound 50 μM, 0.5 nM 125I-BDNF, PC12 cells, 2 h at 4° C., specific binding as percent of control

Compound | NGF Activity % Maximal Binding ([1]; Table 1) | NGF Activity % Maximal Binding ([1]; Table 4) | activity at 50 µM [2, 4] [%] | activity at 50 µM [2] [%] | also measured
COc1ccc(-c2ccc(/C=C3\SC(=S)NC3=O)o2)cc1[N+](=O)[O-] [Compound 20, 5-[5-(4-Methoxy-3-nitrophenyl)furan-2-ylmethylene]-2-thioxo-thiazolidin-4-one] | * (50 < *) | – | – | – | activity at 50 µM [2, 3]: 0 to 10%
Cc1cc([N+](=O)[O-])ccc1-c1ccc(C=C2NC(=S)NC2=O)o1 [Compound 94, 5-[5-(2-Methyl-4-nitrophenyl)furan-2-ylmethylene]-2-thioxo-imidazolidin-4-one] | – | * (50 < *) | > 50 | – | –
Cc1cc(-c2ccc(C=C3C(=O)NC(=O)NC3=O)o2)ccc1[N+](=O)[O-] [Compound 96, 5-[5-(3-Methyl-4-nitrophenyl)furan-2-ylmethylene]-pyrimidine-2,4,6-trione] | – | * (50 < *) | – | > 50 | –
COc1cc([N+](=O)[O-])ccc1-c1ccc(C=C2C(=O)ON=C2c2ccccc2)o1 [Compound 56, 4-[5-(2-Methoxy-4-nitrophenyl)furan-2-ylmethylene]-3-phenyl-4H-isoxazol-5-one] | * (50 < *) | – | – | – | activity at 50 µM [2, 3]: 40 to 50%
CCOC(=O)CN1C(=O)S/C(=C/c2ccc(-c3ccc([N+](=O)[O-])cc3Cl)o2)C1=O [Compound 132, {5-[5-(2-Chloro-4-nitrophenyl)furan-2-ylmethylene]-2,4-dioxo-thiazolidin-3-yl}-acetic acid ethyl ester] | – | * (50 < *) | > 50 | – | –
COC(=O)c1ccc(-c2ccc(/C=C3/NC(=O)N(Cc4ccc(F)cc4)C3=O)o2)c(C)c1 [Compound 46, 4-{5-[1-(4-Fluorobenzyl)-2,5-dioxo-imidazolidin-4-ylidenemethyl]furan-2-yl}-3-methylbenzoic acid methyl ester] | * (50 < *) | – | – | – | activity at 50 µM [2, 3]: 30 to 40%
COC(=O)CN1C(=S)N(C)C(=O)/C1=C/c1ccc(-c2ccc([N+](=O)[O-])cc2)o1 [Compound 141, {3-Methyl-5-[5-(4-nitrophenyl)furan-2-ylmethylene]-4-oxo-2-thioxo-imidazolidin-1-yl}-acetic acid methyl ester] | – | * (50 < *) | > 50 | – | –
Cc1cc([N+](=O)[O-])ccc1-c1ccc(C=C2SC(=O)NC2=O)o1 [Compound 92, 5-[5-(2-Methyl-4-nitrophenyl)furan-2-ylmethylene]-thiazolidine-2,4-dione] | – | * (50 < *) | > 50 | – | –
O=C1NC(=S)NC(=O)C1=Cc1ccc(-c2ccc([N+](=O)[O-])cc2Br)o1 [Compound 1, 5-[5-(2-Bromo-4-nitrophenyl)furan-2-ylmethylene]-2-thioxo-dihydro-pyrimidine-4,6-dione] | * (50 < *) | – | – | 0 to 10 | –
CN1C(=O)NC(=O)C(=Cc2ccc(-c3ccc(C(=O)O)cc3)o2)C1=O [Compound 17, 4-[5-(1-Methyl-2,4,6-trioxo-tetrahydro-pyrimidin-5-ylidenemethyl)furan-2-yl]benzoic acid] | * (50 < *) | – | – | 0 to 10 | –
O=C1NC(=S)N(c2ccc(F)cc2)C(=O)/C1=C\c1ccc(-c2cccc([N+](=O)[O-])c2)o1 [Compound 70, 1-(4-Fluorophenyl)-5-[5-(3-nitrophenyl)furan-2-ylmethylene]-2-thioxo-dihydro-pyrimidine-4,6-dione] | – | – | – | 0 to 10 | NGF Activity % Maximal Binding ([1]; Table 2): X (40 < X < 50)
COC(=O)CN1C(=O)S/C(=C/c2ccc(-c3ccc(C(=O)O)cc3)o2)C1=O [Compound 79, 4-[5-(3-Methoxycarbonylmethyl-2,4-dioxo-thiazolidin-5-ylidenemethyl)furan-2-yl]benzoic acid] | – | – | – | – | NGF Activity % Maximal Binding ([1]; Table 2): X (40 < X < 50); activity at 50 µM [2, 5]: 10 to 20%
Cc1ccc([N+](=O)[O-])cc1-c1ccc(/C=C2/SC(=O)NC2=O)o1 [Compound 88, 5-[5-(2-Methyl-5-nitrophenyl)furan-2-ylmethylene]-thiazolidine-2,4-dione] | – | * (50 < *) | > 50 | – | –
O=C(O)c1ccc(-c2ccc(/C=C3/NC(=O)N(c4cccc(Cl)c4)C3=O)o2)cc1Cl [Compound 36, 2-Chloro-4-{5-[1-(3-chlorophenyl)-2,5-dioxo-imidazolidin-4-ylidenemethyl]furan-2-yl}benzoic acid] | * (50 < *) | – | – | – | activity at 50 µM [2, 3]: 10 to 20%
Cc1c(-c2ccc(C=C3C(=O)NC(=S)NC3=O)o2)ccc([N+](=O)[O-])c1C [Compound 71, 5-[5-(2,3-Dimethyl-4-nitrophenyl)furan-2-ylmethylene]-2-thioxo-dihydro-pyrimidine-4,6-dione] | – | – | – | 0 to 10 | NGF Activity % Maximal Binding ([1]; Table 2): X (40 < X < 50)
CCOC(=O)CN1C(=O)S/C(=C/c2ccc(-c3ccc([N+](=O)[O-])cc3OC)o2)C1=O [Compound 118, {5-[5-(2-Methoxy-4-nitrophenyl)furan-2-ylmethylene]-2,4-dioxo-thiazolidin-3-yl}-acetic acid ethyl ester] | – | * (50 < *) | > 50 | – | –
CN1C(=O)NC(=O)C(=Cc2ccc(-c3cccc([N+](=O)[O-])c3)o2)C1=O [Compound 78, 1-Methyl-5-[5-(3-nitrophenyl)furan-2-ylmethylene]-pyrimidine-2,4,6-trione] | – | – | – | 10 to 20 | NGF Activity % Maximal Binding ([1]; Table 2): X (40 < X < 50)
Cc1cc([N+](=O)[O-])ccc1-c1ccc(C=C2SC(=S)N(CC(=O)O)C2=O)o1 [Compound 40, {5-[5-(2-Methyl-4-nitrophenyl)furan-2-ylmethylene]-4-oxo-2-thioxo-thiazolidin-3-yl}-acetic acid] | * (50 < *) | – | – | – | activity at 50 µM [2, 3]: 20 to 30%
CCN1C(=O)S/C(=C/c2ccc(-c3ccc(C(=O)O)cc3)o2)C1=O [Compound 73, 4-[5-(3-Ethyl-2,4-dioxo-thiazolidin-5-ylidenemethyl)furan-2-yl]benzoic acid] | – | – | – | – | NGF Activity % Maximal Binding ([1]; Table 2): X (40 < X < 50); activity at 50 µM [2, 5]: 0 to 10%
Cc1ccc(-c2ccc(/C=C3/NC(=O)NC3=O)o2)cc1[N+](=O)[O-] [Compound 114, 5-[5-(4-Methyl-3-nitrophenyl)furan-2-ylmethylene]-imidazolidine-2,4-dione] | – | * (50 < *) | > 50 | – | –
